# Reference: the supplement of paper PMC10307832
# What was measured:
# Assay in all cases: relative viability (nuclei count vs DMSO), 5 days (fraction); higher = more cells survive
# [1] = compound: Cc1cnc(CNC(=O)c2c(=O)c3ccc(N4CCCN(C)CC4)nc3n3c2sc2ccccc23)cn1 [CX-5461] + Nc1ncn([C@H]2C[C@H](O)[C@@H](CO)O2)c(=O)n1 [Decitabine] (partner 2 µM)
# In short: (§1)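 Cells from lung cancer lines were seeded into 1536-well plates and, one day later, dosed by pin tool. Treatments were either a single drug or a fixed dose of an anchor drug with five library-drug doses (not always all listed) in √10 steps. After 5 days, nuclei were stained in a one-step fixation (final 0.05% Triton X-100, 1% formaldehyde, 1 ug/ml Hoechst) and counted on 4× images, and relative viability is the treated-to-vehicle nuclei ratio, as the median of duplicate plates.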
# [2] = compound: Cc1cnc(CNC(=O)c2c(=O)c3ccc(N4CCCN(C)CC4)nc3n3c2sc2ccccc23)cn1 [CX-5461] + CC(=O)Nc1cccc(-n2c(=O)n(C3CC3)c(=O)c3c(Nc4ccc(I)cc4F)n(C)c(=O)c(C)c32)c1 [Trametinib] (partner 0.02 µM)
# In short: as §1
# [3] = compound: Cc1cnc(CNC(=O)c2c(=O)c3ccc(N4CCCN(C)CC4)nc3n3c2sc2ccccc23)cn1 [CX-5461] + N=C(N)NC(=N)NCCc1ccccc1 [Phenformin] (partner 250 µM)
# In short: as §1
# [4] = compound: O=C(Nc1cc(C(F)(F)F)cc(C(F)(F)F)c1)c1cc(Cl)ccc1O [IMD-0354] + CC1(C)CCC(c2ccc(Cl)cc2)=C(CN2CCN(c3ccc(C(=O)NS(=O)(=O)c4ccc(N[C@H](CCN5CCOCC5)CSc5ccccc5)c(S(=O)(=O)C(F)(F)F)c4)cc3)CC2)C1 [Navitoclax] (partner 0.5 µM)
# In short: as §1
Cell Line,relative viability ([1]; first compound 0.01 µM),relative viability ([1]; first compound 0.03162 µM),relative viability ([1]; first compound 0.1 µM),relative viability ([1]; first compound 0.3162 µM),relative viability ([1]; first compound 1 µM),relative viability ([2]; first compound 0.01 µM),relative viability ([2]; first compound 0.03162 µM),relative viability ([2]; first compound 0.1 µM),relative viability ([2]; first compound 0.3162 µM),relative viability ([2]; first compound 1 µM),relative viability ([3]; first compound 0.01 µM),relative viability ([3]; first compound 0.03162 µM),relative viability ([3]; first compound 0.1 µM),relative viability ([3]; first compound 0.3162 µM),relative viability ([3]; first compound 1 µM),relative viability ([4]; first compound 0.04 µM),relative viability ([4]; first compound 0.1265 µM),relative viability ([4]; first compound 0.4 µM),relative viability ([4]; first compound 1.265 µM),relative viability ([4]; first compound 4 µM)
NCI-H1993,1.37,0.64,0.668,0.29,0.577,0.525,0.448,0.476,0.431,0.544,0.478,0.476,0.457,0.452,0.416,0.975,0.792,0.722,0.552,0.576
NCI-H322M,0.716,0.701,0.637,0.572,0.614,0.441,0.542,0.55,0.407,0.508,0.821,0.945,0.818,0.473,0.521,1.27,1.23,1.12,1.5,0.267
NCI-H838,0.475,0.479,0.47,0.429,0.332,0.555,0.555,0.539,0.328,0.482,0.748,0.652,0.629,–,0.431,1.16,1.21,0.468,0.314,0.251
HARA,0.595,0.429,0.559,0.587,0.526,0.545,0.772,0.573,0.661,0.644,0.416,0.414,0.48,–,0.353,0.952,1.11,0.36,0.342,0.131
NCI-H2087,0.277,0.306,0.213,0.288,0.188,0.173,0.268,0.201,0.209,0.186,0.411,0.406,0.398,0.316,0.32,0.918,0.815,0.363,0.111,0.158
NCI-H1437,0.603,0.556,0.545,0.51,0.435,0.542,0.568,0.469,0.537,0.391,0.353,0.315,–,0.288,0.273,1.17,1.13,0.443,0.152,0.244
NCI-H1792,0.664,0.67,0.646,0.542,0.534,0.542,0.434,0.407,0.401,0.52,0.387,0.198,0.114,0.401,0.111,0.761,0.564,1.66,0.346,0.482
ChaGo-K-1,0.554,0.485,0.547,0.543,0.431,0.875,0.978,0.874,0.922,0.849,0.512,0.527,0.474,0.299,0.268,1.43,1.48,0.672,0.296,0.327
